In US20220395464A1, “ORALLY ADMINISTERED SOLID DOSAGE FORM DRUG” (ASCENTAWITS PHARMACEUTICALS, LTD., priority 2019, published 2022):
Where “and” joins values, the source holds several entries; their conditions need not be identical. Equal entries are not always repeated.

What was measured:
[1] = Stability in hepatomicrosome with NADPH (LC-MS/MS); assay type: in vitro ADME, human; conditions: for % Remaining: human hepatomicrosome 0.5 mg/ml, NADPH 2 mM, 37° C., Sample 1, Sample 2
Method: The compounds, hepatomicrosome and reduced coenzyme NADPH were mixed together. Besides, a final concentration of the hepatomicrosome was 0.5 mg/ml, and human, male and mixed types of the hepatomicrosome were purchased. A final concentration of the NADPH was 2 mM. Next, the preceding mixtures were incubated in buffer (100 mM KH2PO4—K2HPO4) at 37° C. for 0, 5, 15, 30, 45, and 60 minutes, respectively. At the appointed incubation time, the reaction was terminated by the addition of an internal standard solution. Finally, the samples were centrifuged and the supernatant was taken for detection by LC-MS/MS.
Through mass spectrometry analysis, a concentration of the compounds in each sample was expressed by a peak-area ratio (a ratio of the peak-area of the compound to a peak-area of the internal standard). Then, each remaining percentage of the compounds (% Remaining) at each appointed incubation time was calculated with a reference that 0 minute at each concentration of the compounds. In logarithm of the remaining percentage was fitted linearly with the appointed incubation times, and a half-life and an intrinsic clearance were calculated according to the following formulas.
The remaining percentage (% Remaining)=(a peak area ratio at a certain appointed time (PARappointed time)/a peak area ratio at 0 minute (PAR0-mm)×100 (PAR: peak area ratio)
The elimination rate constant (k)=a negative of a slope (-gradient)
In vitro clearance (CLint, in vitro) (ml/min/mg)=k/c (c: a concentration of hepatomicrosome in the incubation system)

[2] = Pharmacokinetics after single intravenous drip infusion, plasma LC-MS/MS; assay type: in vivo, Philippine macaques; conditions: individual animals 101, 102, 103; for Plasma-drug concentration: AST-3424-D6 intravenous drip infusion 0.42 mg/kg
Method: AST-3424 and AST-3424-D6 (i.e. the compound of formula I) were administered to Philippine macaques by intravenous drip infusion, and blood samples were collected at different appointed times. LC-MS/MS was used to determine concentrations of the test substances in plasma of the Philippine macaques after administration, and relevant pharmacokinetic parameters were calculated.
Preparation method: 0.447 ml of AST-3424 (0.2 mg/ml) and 0.481 ml of AST-3424-D6 (0.2 mg/ml) were added into 104.272 ml of the dissolvent, respectively, and mixed for 5 minutes to obtain colorless and clarified solutions with pH 7.0.
The four male Philippine macaques were purchased from Guangxi Xiongsen Primate Development Experiment Co., Ltd. All Philippine macaques were healthy with qualified medical examination and no abnormality. Three of animals were used for the experiment, and one of them was used to prepare blank plasma.
About 0.8 ml of blood samples were collected through femoral vein and anticoagulated with heparin sodium. Appointed times of blood collection were before administration, 0.17, 0.25, 0.5, 0.75, 1, 2, and 4 hours after administration.
The blood samples were placed on ice after collection. Next, plasma samples were separated by centrifugation, and centrifugation conditions were 3500 rpm for 10 minutes at 4° C. Then, the collected plasma samples were stored at −80° C. until analysis. The plasma samples were analyzed by LC-MS/MS by an analysis department of an experimental institution. Besides, Lower limit of quantifications (LLOQ) of AST-3424 and AST-3424-D6 detection were 1 ng/ml. The accuracy of analysis results of an accompanying standard curve and a quality control samples all met the relevant requirements of biological analysis (the accuracy of the quality control samples exceeding 66.7% was between 85˜115%) in a process of the sample detection.
According to average blood concentration data of each group at each appointed time, the pharmacokinetic parameters of the compounds were respectively computed by a pharmacokinetic computing software, a non-compartmental model. In addition, the pharmacokinetic parameters were AUC0-t, AUC0-∞, MRT0-∞, Cmax, Tmax, t1/2, etc. In the case of the concentrations of the samples whose concentration being lower than a lower limit of quantification, the following schemes were used to compute the pharmacokinetic parameters. The samples sampled before reaching Cmax shall be computed as zero value, while the samples sampled after reaching Cmax shall be computed as non-quantifiable (marked as “BLQ”).
After a single intravenous infusion of the compounds AST-3424 and AST-3424-D6 was administered to the Philippine macaques, the whole blood samples of the corresponding animals were collected at the appointed times. Next, the whole blood samples were processed and biologically analyzed to obtain concentrations of the compounds in the plasma at the different appointed times. Results of the assay were listed in Table 14 below, and corresponding means of the plasma-drug concentration-time curves are shown in FIG. 3.
According to the plasma-drug concentration data of each drug group, the pharmacokinetic parameters of each compound group were computed using the non-compartmental model of the pharmacokinetic computing software. The pharmacokinetic

[3] = AST-3424-D6 single intravenous infusion, Table 15 heading 0.58 mg/kg (text: 0.42 mg/kg), plasma

SMILES: [2H]C([2H])([2H])N(C(=O)c1cccc(Oc2cc([C@H](C)OP(=O)(N3CC3)N3CC3)ccc2[N+](=O)[O-])c1)C([2H])([2H])[2H] [AST-3424-D6]
- Stability parameter k (elimination rate constant) ([1]; human hepatomicrosome): 0.0349 min⁻¹
- % Remaining ([1]; 0 minutes): 101.60% and 98.40%
- % Remaining ([1]; 5 minutes): 85.07% and 87.20%
- % Remaining ([1]; 15 minutes): 62.93% and 60.00%
- % Remaining ([1]; 30 minutes): 36.80% and 34.93%
- % Remaining ([1]; 45 minutes): 21.17% and 21.07%
- % Remaining ([1]; 60 minutes): 13.52% and 12.75%
- % Remaining, Average ([1]; human hepatomicrosome, 0 minutes): 100.00%
- % Remaining, Average ([1]; human hepatomicrosome, 5 minutes): 86.13%
- % Remaining, Average ([1]; human hepatomicrosome, 15 minutes): 63.47%
- % Remaining, Average ([1]; human hepatomicrosome, 30 minutes): 35.87%
- % Remaining, Average ([1]; human hepatomicrosome, 45 minutes): 21.12%
- % Remaining, Average ([1]; human hepatomicrosome, 60 minutes): 13.13%
- Hepatomicrosome stability compared with AST-3424, in words ([1]; human hepatomicrosome, FIG. 2 and Table 13): more stable
- Remaining percentage higher than that of AST-3424 ([1]; human hepatomicrosome, at the same time period): at least 10%
- half-life ([1]; male, liver microsomes (hepatomicrosome), human hepatomicrosome, read-out: Stability parameter (t1/2)): 19.9 min
- Plasma-drug concentration ([2]; 0.17 hr): 573.76 ng/mL and 478.95 ng/mL
- Plasma-drug concentration ([2]; 0.25 hr): 528.54 ng/mL and 508.71 ng/mL
- Plasma-drug concentration ([2]; 0.5 hr): 533.71 ng/mL and 487.88 ng/mL
- Plasma-drug concentration ([2]; 0.75 hr): 122.04 ng/mL and 91.24 ng/mL
- Plasma-drug concentration ([2]; 1 hr): 36.24 ng/mL and 24.30 ng/mL
- Plasma-drug concentration ([2]; 2 hr, LLOQ 1 ng/ml): BLQ
- Plasma-drug concentration ([2]; 4 hr, LLOQ 1 ng/ml): BLQ
- AUC(0−t) [2, 3]: 327.39 ng·h/mL and 291.62 ng·h/mL
- AUC(0−∞) [2, 3]: 295.67 ng·h/mL
- Cl [2, 3]: 1420.48 mL/h/kg
- Cmax [2, 3]: 573.76 ng/mL and 508.71 ng/mL
- T1/2 [2, 3]: 7.2 min
- Tmax [2, 3]: 30 min and 10.2 min and 15 min
- Vss [2, 3]: 207.06 mL/kg
